Source: patent publication US7902341B2, “Methods and compositions for modulating somatolactogenic functions” (Trustees of the University of Pennsylvania, priority 1999, dated 2011)

Tests used:
[1] = test system: Nb2 cells; experiment: Nb2 cell proliferation (3H-thymidine) to assess CypB modulation of somatolactogenic action; format: cell-based, rat; conditions: for enhancement of PRL-driven growth compared to cultures that received only PRL: Nb2 cells, added to PRL-containing medium, most prominent at 5-10 mM CypB and 50 pM PRL
Method: (§1) The effect of exogenous CypB on PRL-driven proliferation was examined with the rat Nb2 T-cell and the human T47D breast cancer line. […] This dose-dependent biphasic effect was most prominent at physiologic concentrations (5-10 mM) of CypB and PRL (50 pM) found in human serum. […] To determine the effect of CypB on cellular growth driven by the larger family of cytokines, to which PRL belongs, proliferation driven by interleukin-2 (IL-2), IL-3 and GH was examined.
Nb2-cells (5×10^4; PRL-dependent, rat T-lymphoma) were plated in each well of 96 well plates in a defined DMEM-serum free medium (0.1 mM 2-mercaptoethanol, 1% penicillin/streptomycin, and 1% ITS+(Calbiochem)). Cells were rested for 24 hours at 37° C. in this defined medium in the absence of PRL before the addition of 5-500 pM PRL (either as human pituitary isolated PRL, National Hormone and Pituitary Program, NIDDK; recombinant human PRL from E. coli, Genzyme; or recombinant human PRL from Drosophila S2 cells) alone or premixed with 1-2000 fold excess of purified CypB. Parallel studies were performed using human pituitary-derived GH (National Hormone and Pituitary Program, NIDDK). Cultures were incubated for 48 hours at 37° C. and proliferation was evaluated by the addition of 0.5 μCi of ^3H-thymidine for four hours followed by harvesting and scintillography. When stimulated with PRL alone, Nb2 cells yield sigmoid shaped growth curves that plateau at approximately 2 ng PRL/ml.

[2] = target: T1, PRL (Homo sapiens, UniProt P01236); experiment: Detection of PRL-CypB complexes by co-immunoprecipitation; format: binding; conditions: for interaction with PRL (co-immunoprecipitation): purified epitope-tagged recombinant proteins admixed, reducing agent or divalent cation
T1 construct: Full length PRL cDNA was generated by PCR; made in house; host or cells: Drosophila S2 cells
T1 sequence (P01236 29-227): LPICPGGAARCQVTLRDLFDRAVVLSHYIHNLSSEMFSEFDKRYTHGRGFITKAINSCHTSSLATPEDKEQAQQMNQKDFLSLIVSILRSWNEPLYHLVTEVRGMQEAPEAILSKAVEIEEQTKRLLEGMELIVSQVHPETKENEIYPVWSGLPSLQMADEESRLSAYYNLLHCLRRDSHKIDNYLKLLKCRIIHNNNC
Method: Complexes were immunoprecipitated by the addition of 1 μg of polyclonal anti-histidine antibody (#sc-803, Santa Cruz Biotech) for one hour followed by roatation for one hour with 50 μl Protein-A beads. Precipiated complexes were separated by 15% SDS-PAGE and transferred to PVDF. Immunoblots were blocked for one hour at room temperature with 5% milk in PBS containing 1% TWEEN-20 (PBST) and immunoblotted with a monoclonal anti-myc antibody (1:1000, mAb 9E10) for one hour. Immunoblots were analyzed by incubation with an anti-mouse secondary antibody conjugated to horseradish peroxidase (1:2000, Boehringer Mannheim) for one hour followed by incubation with ECL Plus (Amersham Pharmacia Biotech) amnd exposure to Biomax film (Kodak).

[3] = test system: IL-2- and IL-3-driven proliferation; experiment: IL-2- and IL-3-driven proliferation with added CypB; format: cell-based; conditions: varying concentration of CypB
Method: as §1

[4] = test system: T47D human breast cancer cells; experiment: Nuclear retrotranslocation of PRL by indirect anti-PRL immunofluorescence; format: cell-based; conditions: defined T47D culture medium containing the co-mitogen EGF
Method: Experiments were performed to examine the ability of CypB to enhance nuclear retrotranslocation of PRL, and thereby PRL-driven proliferation.
The role of this sequence in the CypB-mediated retrotranslocation of PRL, and its associated enhancement of growth was tested by mutagenic approaches. The putative nuclear localization sequence of CypB was deleted in the mutant CypB-NT.

| Substance | enhancement of PRL-driven growth compared to cultures that received only PRL [1] | interaction with PRL (co-immunoprecipitation) [2] | effect on IL-2-driven proliferation [3] | effect on IL-3-driven proliferation [3] | T47D nuclei exhibiting anti-PRL immunofluorescence [4] | enhancement of PRL-induced proliferation ([1]; cell line not stated) | enhancement of GH-driven proliferation compared to GH alone ([1]; physiological concentrations of CypB, human pituitary-derived GH) | interaction with PRL in human serum (co-immunoprecipitation; binding to sepharose-conjugated recombinant CypB) ([2]; human serum) |
| --- | --- | --- | --- | --- | --- | --- | --- | --- |
| CypA: recombinant form of the highly homologous cyclophilin family member [reference compound] | did not result in any potentiation | failed to interact with PRL |  |  |  |  |  |  |
| CypB: cyclophilin family cis-trans peptidyl prolyl isomerase; recombinant His-tagged wild-type protein (SEQ ID NO: 1) | eight-fold | direct interaction of CypB with PRL | Neither IL-2- nor IL-3-driven proliferation was altered | Neither IL-2- nor IL-3-driven proliferation was altered | 95-100% | failed to enhance PRL-induced proliferation | forty-fold | direct co-immunoprecipitation of PRL with CypB from human serum |
